Several values for one entry are separate records, joined by “and”; a condition that tells them apart may be missing. Equal values may be shown once. Read-outs that look alike come from different tables or passages of the source.
Tests used:
[1] = molecular target: T1, HEK293 cells permanently transfected with mAC5 (Homo sapiens, UniProt O95622); experiment: cAMP accumulation assay, isoproterenol-stimulated HEK-mAC5 cells; format: cell-based
T1 construct: Human mAC genes were from GenScript and fitted with a C-terminal FLAG-tag; FLAG (C); expressed in transfected cells; host or cells: HEK293, permanently transfected
Experimental: (§1) hAC sequences were from NCBI were: ADCY1: NM_021116.3; ADCY2: NM_020546.2; ADCY3: NM_004036.4; ADCY4: NM_001198568.2; ADCY5: NM_183357.2; ADCY6: NM_015270.4; ADCY7: NM_001114.4; ADCY8: NM_001115.2; ADCY9: NM_001116.3. Human mAC genes were from GenScript and fitted with a C-terminal FLAG-tag. […] The gene was synthesized by GenScript. HEK293 cells were maintained in Dulbeccos Modified Eagle Medium (DMEM) with 10% fetal bovine serum at 37°C and 5% CO2. Transfection with AC plasmids was with PolyJet (SignaGen, Frederick, MD, USA). Permanent cell lines were generated by selection for 7 days with 600 µg/ml G418 and maintained with 300 µg/ml For membrane preparation, cells were tyrpsinized, collected by centrifugation (3000 × g, 5 min) and lysed and homogenized in 20 mM HEPES, pH 7.5, 1 mM Ethylenediaminetetraacetic acid (EDTA), 2 mM MgCl2, 1 mM Dithiothreitol (DTT), one tablet of cOmplete, EDTA-free (per 50 ml) and 250 mM sucrose by 20 strokes in a potter homogenizer on ice. Debris was removed (5 min at 1000 × g, 0°C), membranes were collected at 100,000 × g, 60 min at 0°C, suspended and stored at −80°C in 20 mM MOPS, pH 7.5, 0.5 mM EDTA, 2 mM MgCl2. Membrane preparation from mouse brain cortex was according to [Seth et al., 2020]; [Schultz and Schmidt, 1987]. Three cerebral cortices were dissected and homogenized in 4.5 ml cold 48 mM Tris–HCl, pH 7.4, 12 mM MgC1_2, and 0.1 mM Ethylene glycol-bis(β-aminoethyl ether)-N,N,N′,N′-tetraacetic acid (EGTA) with a Polytron hand disperser (Kinematica AG, Switzerland). The homogenate was centrifuged for 15 min at 12,000 × g at 4°C. The pellet was washed once with 5 ml 1 mM KHCO3. The final suspension in 2 ml 1 mM KHCO3 was stored in aliquots at −80°C.
(§2) HEK293 cells stably expressing mAC isoforms 3, 5, and mAC5(membr)_mAC3(cat) were plated at 2500–10,000 cells/well into 384-well plates. […]. Addition of Cisbio HTRF detection reagents stopped the reaction and cAMP levels were determined.

[2] = molecular target: T2, HEK293-mAC5(membr)–AC3(cat) cells (Homo sapiens, UniProt O60266+O95622); experiment: cAMP accumulation assay, isoproterenol-stimulated HEK-mAC5–3 cells; format: cell-based
T2 construct: followed by AC5(1–402)_AC3(250–631)_AC5(761–1009)_AC3(862–1144); expressed in transfected cells; host or cells: HEK293, stably expressing the chimera
Experimental: as §1, §2

mAC5(membr)–AC3(cat) = molecular target: T3, mAC5(membr)–AC3(cat) (Homo sapiens, UniProt O60266+O95622); experiment: AC assay, Gsα-stimulated chimera mAC5–3 in membranes from transfected HEK293 cells; format: biochemical; settings: for Effect on Gsα-stimulated mAC5(membr)–AC3(cat) chimera: 300 nM Gsα, 20 µM oleic acid or 100 µM anandamide, in words
T3 construct: followed by AC5(1–402)_AC3(250–631)_AC5(761–1009)_AC3(862–1144); made in house; host or cells: HEK293, transfected; membrane preparation
Experimental: as §1
In a volume of 10 μl, AC activities were measured using 1 mM ATP, 2 mM MgCl2, 3 mM creatine phosphate, 60 μg/ml creatine kinase, and 50 mM MOPS pH 7.5. The cAMP assay kit from Cisbio (Codolet, France) was used for detection according to the supplier’s instructions. For each assay, a cAMP standard curve was established. EC50 and IC50 values were calculated by GraphPad Prism version 8.4.3 for Windows, GraphPad Software, San Diego, CA, USA, https://www.graphpad.com .

mAC9 = molecular target: T4, mAC9 (Homo sapiens, UniProt O60503); experiment: AC assay, Gsα-stimulated mAC9 in membranes from transfected HEK293 cells; format: biochemical
T4 construct: Human mAC genes were from GenScript and fitted with a C-terminal FLAG-tag; FLAG (C); made in house; host or cells: HEK293, permanently transfected; membrane preparation
How it was run: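 Human AC, FLAG-tagged, stably expressed in HEK293; membranes used as enzyme. 1 mM ATP, 2 mM MgCl2, ATP regeneration, MOPS pH 7.5; cAMP kit readout.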

[3] = 20 µM fatty acid, 300 nM Gsα, single experiments

T2 sequence (O95622 1-402): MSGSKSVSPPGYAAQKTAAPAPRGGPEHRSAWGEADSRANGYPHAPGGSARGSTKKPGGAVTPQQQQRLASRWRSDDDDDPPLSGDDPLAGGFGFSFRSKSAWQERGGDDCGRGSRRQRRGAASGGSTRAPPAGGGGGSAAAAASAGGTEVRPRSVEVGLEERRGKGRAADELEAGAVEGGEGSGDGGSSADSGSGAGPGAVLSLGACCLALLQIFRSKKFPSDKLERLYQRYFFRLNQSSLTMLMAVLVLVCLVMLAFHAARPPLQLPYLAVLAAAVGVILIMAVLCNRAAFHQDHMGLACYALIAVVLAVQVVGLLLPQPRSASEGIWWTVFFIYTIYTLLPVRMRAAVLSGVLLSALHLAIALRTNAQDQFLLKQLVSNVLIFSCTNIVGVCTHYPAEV
T2 sequence (O60266 250-631): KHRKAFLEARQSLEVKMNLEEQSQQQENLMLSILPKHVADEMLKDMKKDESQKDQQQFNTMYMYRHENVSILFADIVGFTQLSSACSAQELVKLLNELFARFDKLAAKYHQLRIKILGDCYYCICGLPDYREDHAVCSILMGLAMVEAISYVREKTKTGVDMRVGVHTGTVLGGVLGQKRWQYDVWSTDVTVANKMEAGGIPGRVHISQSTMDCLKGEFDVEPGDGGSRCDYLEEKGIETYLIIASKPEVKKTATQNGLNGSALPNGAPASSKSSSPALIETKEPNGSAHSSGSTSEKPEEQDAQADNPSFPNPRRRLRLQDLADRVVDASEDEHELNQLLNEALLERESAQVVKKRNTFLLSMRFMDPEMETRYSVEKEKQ
T2 sequence (O95622 761-1009): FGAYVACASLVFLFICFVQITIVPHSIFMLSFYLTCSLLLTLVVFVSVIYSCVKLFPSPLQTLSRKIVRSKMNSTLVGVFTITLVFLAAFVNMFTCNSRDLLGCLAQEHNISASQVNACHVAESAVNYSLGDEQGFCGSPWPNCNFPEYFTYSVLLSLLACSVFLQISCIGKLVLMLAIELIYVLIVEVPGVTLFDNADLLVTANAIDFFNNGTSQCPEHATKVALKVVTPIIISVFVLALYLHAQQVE
T2 sequence (O60266 862-1144): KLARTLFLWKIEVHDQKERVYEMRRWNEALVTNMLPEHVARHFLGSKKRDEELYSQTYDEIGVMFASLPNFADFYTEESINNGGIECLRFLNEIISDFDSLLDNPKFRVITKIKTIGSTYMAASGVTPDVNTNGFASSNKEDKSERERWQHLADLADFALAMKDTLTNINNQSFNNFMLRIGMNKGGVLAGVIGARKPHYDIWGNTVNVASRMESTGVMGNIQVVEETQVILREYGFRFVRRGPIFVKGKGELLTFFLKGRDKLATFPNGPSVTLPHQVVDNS
T3 sequence (O95622 1-402): as the sequence (O95622 1-402) above
T3 sequence (O60266 250-631): as the sequence (O60266 250-631) above
T3 sequence (O95622 761-1009): as the sequence (O95622 761-1009) above
T3 sequence (O60266 862-1144): as the sequence (O60266 862-1144) above
T1 sequence (O95622 whole entry): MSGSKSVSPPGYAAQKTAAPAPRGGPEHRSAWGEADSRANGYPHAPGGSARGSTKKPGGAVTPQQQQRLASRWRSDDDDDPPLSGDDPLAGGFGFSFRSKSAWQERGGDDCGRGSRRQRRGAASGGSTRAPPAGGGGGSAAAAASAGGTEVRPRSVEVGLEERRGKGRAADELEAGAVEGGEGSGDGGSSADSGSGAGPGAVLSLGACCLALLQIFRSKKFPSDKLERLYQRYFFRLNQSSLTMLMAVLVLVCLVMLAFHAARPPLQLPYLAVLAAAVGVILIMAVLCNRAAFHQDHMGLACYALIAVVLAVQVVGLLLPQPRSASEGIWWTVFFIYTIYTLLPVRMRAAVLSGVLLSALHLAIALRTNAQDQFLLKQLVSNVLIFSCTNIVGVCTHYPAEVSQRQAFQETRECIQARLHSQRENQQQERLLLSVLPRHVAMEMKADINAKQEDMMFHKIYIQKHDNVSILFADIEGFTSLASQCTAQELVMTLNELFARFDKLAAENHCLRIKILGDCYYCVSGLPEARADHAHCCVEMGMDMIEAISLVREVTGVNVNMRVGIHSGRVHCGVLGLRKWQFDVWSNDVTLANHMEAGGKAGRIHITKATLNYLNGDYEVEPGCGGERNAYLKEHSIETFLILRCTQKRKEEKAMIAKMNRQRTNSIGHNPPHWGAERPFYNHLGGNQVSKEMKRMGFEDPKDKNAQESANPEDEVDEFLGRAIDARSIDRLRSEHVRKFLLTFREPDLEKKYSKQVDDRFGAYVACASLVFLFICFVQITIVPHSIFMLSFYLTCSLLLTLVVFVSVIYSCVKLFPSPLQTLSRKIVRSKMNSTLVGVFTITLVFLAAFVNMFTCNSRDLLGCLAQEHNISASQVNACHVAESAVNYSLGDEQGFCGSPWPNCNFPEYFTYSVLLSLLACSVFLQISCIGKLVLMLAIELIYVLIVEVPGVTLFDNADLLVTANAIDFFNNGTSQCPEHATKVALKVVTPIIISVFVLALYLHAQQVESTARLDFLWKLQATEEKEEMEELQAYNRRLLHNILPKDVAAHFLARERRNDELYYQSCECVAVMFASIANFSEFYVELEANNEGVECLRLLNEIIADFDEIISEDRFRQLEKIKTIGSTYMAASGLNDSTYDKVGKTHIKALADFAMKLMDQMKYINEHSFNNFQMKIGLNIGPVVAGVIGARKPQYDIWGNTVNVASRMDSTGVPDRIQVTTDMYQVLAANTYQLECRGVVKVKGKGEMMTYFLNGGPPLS
T4 sequence (O60503 whole entry): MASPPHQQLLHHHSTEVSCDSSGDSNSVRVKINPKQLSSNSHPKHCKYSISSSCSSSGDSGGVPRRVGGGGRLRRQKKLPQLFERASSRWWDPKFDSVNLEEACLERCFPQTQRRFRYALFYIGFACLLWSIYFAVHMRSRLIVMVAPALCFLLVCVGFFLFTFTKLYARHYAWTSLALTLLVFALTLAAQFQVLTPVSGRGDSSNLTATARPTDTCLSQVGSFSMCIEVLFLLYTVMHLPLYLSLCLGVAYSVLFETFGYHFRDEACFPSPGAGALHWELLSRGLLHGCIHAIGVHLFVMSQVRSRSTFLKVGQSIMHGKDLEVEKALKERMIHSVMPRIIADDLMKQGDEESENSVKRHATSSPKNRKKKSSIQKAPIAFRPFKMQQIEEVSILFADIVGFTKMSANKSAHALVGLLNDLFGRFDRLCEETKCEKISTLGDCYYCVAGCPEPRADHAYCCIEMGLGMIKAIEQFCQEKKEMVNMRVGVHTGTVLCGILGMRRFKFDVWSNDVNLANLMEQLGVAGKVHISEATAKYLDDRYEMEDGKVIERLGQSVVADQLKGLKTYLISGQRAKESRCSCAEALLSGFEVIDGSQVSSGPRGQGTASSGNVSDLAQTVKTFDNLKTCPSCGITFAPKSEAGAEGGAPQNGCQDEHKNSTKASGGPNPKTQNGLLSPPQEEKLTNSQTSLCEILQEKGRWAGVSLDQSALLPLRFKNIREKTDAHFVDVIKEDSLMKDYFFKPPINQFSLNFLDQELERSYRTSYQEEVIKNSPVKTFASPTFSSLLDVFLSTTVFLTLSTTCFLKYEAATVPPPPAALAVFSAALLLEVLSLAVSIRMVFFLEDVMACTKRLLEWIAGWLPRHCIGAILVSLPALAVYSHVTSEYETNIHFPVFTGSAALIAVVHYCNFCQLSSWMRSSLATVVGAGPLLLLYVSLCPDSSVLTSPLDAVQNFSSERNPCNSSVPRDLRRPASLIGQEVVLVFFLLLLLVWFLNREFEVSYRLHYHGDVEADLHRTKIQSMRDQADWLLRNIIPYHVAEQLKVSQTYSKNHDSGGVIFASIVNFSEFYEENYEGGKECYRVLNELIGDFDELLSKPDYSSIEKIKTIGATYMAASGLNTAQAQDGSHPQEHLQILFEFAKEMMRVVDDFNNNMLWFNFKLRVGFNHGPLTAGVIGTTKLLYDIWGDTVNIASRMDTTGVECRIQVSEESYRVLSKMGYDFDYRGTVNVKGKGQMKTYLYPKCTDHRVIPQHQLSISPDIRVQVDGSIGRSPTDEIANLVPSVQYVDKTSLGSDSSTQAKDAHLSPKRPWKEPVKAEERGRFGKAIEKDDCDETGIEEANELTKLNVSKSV
T4 sequence (P63092 2-394 Q227L partner): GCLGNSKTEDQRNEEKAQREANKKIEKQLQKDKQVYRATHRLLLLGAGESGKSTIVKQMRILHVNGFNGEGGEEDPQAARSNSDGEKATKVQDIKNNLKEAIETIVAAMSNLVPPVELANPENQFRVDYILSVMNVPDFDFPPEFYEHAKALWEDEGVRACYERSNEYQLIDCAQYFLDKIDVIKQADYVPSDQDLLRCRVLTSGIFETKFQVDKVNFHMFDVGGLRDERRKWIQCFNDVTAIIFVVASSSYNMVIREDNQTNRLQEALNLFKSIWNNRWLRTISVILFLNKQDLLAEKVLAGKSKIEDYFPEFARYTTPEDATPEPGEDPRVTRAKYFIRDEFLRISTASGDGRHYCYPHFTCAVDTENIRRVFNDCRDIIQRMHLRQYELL

CCCCC/C=C\C/C=C\C/C=C\C/C=C\CCCC(=O)NCCO [Anandamide, arachidonoylethanolamide]
IC50 ([1]; 2.5 µM isoproterenol): 133 µM
attenuation of cAMP formation in HEK293-mAC5 cells ([1]; 100 µM anandamide, 2.5 µM isoproterenol): 23%
HEK-mAC activity (%); 100%= 2.5µM Isoproterenol stimulation, HEK-mAC5 ([1]; Anandamide 1 µM): 110% and 105% and 81% and 111% and 118% and 98% and 96% and 86%
HEK-mAC activity (%); 100%= 2.5µM Isoproterenol stimulation, HEK-mAC5 ([1]; Anandamide 3 µM): 110% and 102% and 93% and 132%
HEK-mAC activity (%); 100%= 2.5µM Isoproterenol stimulation, HEK-mAC5 ([1]; Anandamide 10 µM): 108% and 103% and 116% and 87% and 120% and 105% and 102%
HEK-mAC activity (%); 100%= 2.5µM Isoproterenol stimulation, HEK-mAC5 ([1]; Anandamide 30 µM): 98% and 88% and 95% and 102%
HEK-mAC activity (%); 100%= 2.5µM Isoproterenol stimulation, HEK-mAC5 ([1]; Anandamide 60 µM): 95% and 75% and 88% and 93% and 110%
HEK-mAC activity (%); 100%= 2.5µM Isoproterenol stimulation, HEK-mAC5 ([1]; Anandamide 100 µM): 79% and 86% and 94% and 77% and 62% and 71%
activity at 0.1 µM ([1]; HEK293, read-out: HEK-mAC activity (%), 100%= 2.5µM Isoproterenol stimulation, HEK-mAC5, Anandamide 0.1 µM): 100%
activity at 30 µM ([1]; HEK293, read-out: HEK-mAC activity (%), 100%= 2.5µM Isoproterenol stimulation, HEK-mAC5, Anandamide 30 µM): 100%
Effect on basal activity of HEK-mAC5 ([1]; up to 100 µM, data not shown, in words): no effect
attenuation of cAMP formation in HEK293-mAC5(membr)–AC3(cat) cells ([2]; 2.5 µM isoproterenol): 66%
IC50 ([2]; 2.5 µM isoproterenol, +0.5 mM IBMX): 60 µM
activity at 0.1 µM ([2]; read-out: HEK-mAC activity (%), 100%= 2.5µM Isoproterenol stimulation, HEK-mAC5-3, Anandamide 0.1 µM): 100%
activity at 100 µM ([2]; read-out: HEK-mAC activity (%), 100%= 2.5µM Isoproterenol stimulation, HEK-mAC5-3, Anandamide 100 µM): 41%
Effect on Gsα-stimulated mAC5(membr)–AC3(cat) chimera (mAC5(membr)–AC3(cat)): attenuated
IC50 (mAC5(membr)–AC3(cat); attenuation of 300 nM Gsα-stimulated activity): 29 µM
activity [%] (100% = 300nM Gsα stimulation) (mAC5(membr)–AC3(cat); mAC 5-3, 100µM Anandamide concentration, Figure 9 D): 41% and 69% and 72% and 65% and 48% and 42%
activity [%] (100% = 300nM Gsα stimulation) (mAC5(membr)–AC3(cat); mAC5-3, Anandamide 0.1 µM): 100%
activity [%] (100% = 300nM Gsα stimulation) (mAC5(membr)–AC3(cat); mAC5-3, Anandamide 1 µM): 126% and 93% and 106% and 127% and 130% and 123%
activity [%] (100% = 300nM Gsα stimulation) (mAC5(membr)–AC3(cat); mAC5-3, Anandamide 3 µM): 121% and 102% and 118% and 146% and 144% and 129%
activity [%] (100% = 300nM Gsα stimulation) (mAC5(membr)–AC3(cat); mAC5-3, Anandamide 10 µM): 109% and 100% and 102% and 111% and 132% and 115%
activity [%] (100% = 300nM Gsα stimulation) (mAC5(membr)–AC3(cat); mAC5-3, Anandamide 30 µM): 77% and 70% and 88% and 68% and 74%
activity [%] (100% = 300nM Gsα stimulation) (mAC5(membr)–AC3(cat); mAC5-3, Anandamide 100 µM): 72% and 65% and 48% and 42% and 41% and 69%

CCCCC/C=C\C/C=C\C/C=C\C/C=C\CCCC(=O)O [Arachidonic acid, Arachidonic ((5Z,8Z,11Z,14Z)-eicosatetraenoic) acid]
EC50 (mAC9): 7.5 µM
mAC9 activity (%);(100% = Gsα stimulation) stimulated by 300nM Gsα (mAC9; 1 µM fatty acid, 300 nM Gsα, single experiments): 99% and 60% and 111% and 93%
mAC9 activity (%);(100% = Gsα stimulation) stimulated by 300nM Gsα (mAC9; [3]): 234% and 150% and 190% and 172% and 188% and 135%
mAC9 activity [%] (100% = 300nM Gsα stimulation); 20µM fatty acid concentration (mAC9; [3]): 172% and 188% and 135% and 234% and 150% and 190%

CCCCCCCC/C=C\CCCCCCCC(=O)O [Oleic acid, Oleic ((9Z)-octadecenoic) acid]
Effect on isoproterenol-stimulated cAMP formation in HEK-mAC5 ([1]; 2.5 µM isoproterenol, in words): unaffected
AC activity (%); 100%= 2.5µM Isoproterenol stimulation ([1]; HEK-mAC5, oleic acid 20 µM): 107% and 100% and 135%
Effect on cAMP formation in HEK293-mAC5(membr)–AC3(cat) cells ([2]; in words, data not shown): ineffective
Effect of lipid on 300 nM Gsα-stimulated mAC9 (mAC9; 20 µM, in words): significantly enhanced
mAC9 activity [%] (100% = 300nM Gsα stimulation) (mAC9; Figure 5 B, oleic acid 0.3 µM): 100%
EC50 (mAC9; enhancement of 300 nM Gsα-stimulated activity, read-out: EC50 for mAC9): 7.8 µM
Effect on Gsα-stimulated mAC5(membr)–AC3(cat) chimera (mAC5(membr)–AC3(cat)): not enhanced
